Results taken from US11434240B2, “TYK2 inhibitors and uses thereof” (Nimbus Lakshmi, Inc., priority 2015, dated 2022).

Assays:
[1] = system: JAK2-pSTAT5 (GM-CSF induced pSTAT5); assay: GM-CSF induced pSTAT5 in human PBMC; format: cell-based; settings: 20 min, 5 ng/mL GM-CSF for 20 minutes, legend words it as IC50
Description: (§1) Human PBMC are isolated from buffy coat and are stored frozen for assays as needed. Cells for assay are thawed and resuspended in complete media containing serum, then cells are diluted to 1.67 E6 cells/ml so that 120 ul per well is 200,000 cells. 15 ul of compound or DMSO is added to the well at the desired concentrations and incubated at 1 hr at 37 C. 15 ul of stimulus (final concentration of 1.7 ng/mL IL-12) is added for 30 minutes prior to pSTAT4 and total STAT4 analysis using cell lysates prepared and analyzed by MSD reagents as per manufacturer protocol. The final DMSO concentration of compound in the assay is 0.1%.
Cells are prepared for analysis as in the above procedure and 15 ul of GM-CSF (final concentration 5 ng/mL) is added for 20 minutes prior to pSTAT5 and total STAT5 analysis using cell lysates prepared and analyzed by MSD reagents as per manufacturer protocol. The final DMSO concentration of compound in the assay is 0.1%.

[2] = system: Tyk2-pSTAT4 (IL-12 induced pSTAT4); assay: IL-12 induced pSTAT4 in human PBMC; format: cell-based; settings: 0.5 h, 1.7 ng/mL IL-12 for 30 minutes, legend words it as IC50
Description: as §1

JAK2 (Invitrogen) kinase = JAK2 (Invitrogen) kinase (Homo sapiens (Human), UniProt O60674); assay: JAK2 radioactive kinase assay; format: biochemical; settings: ATP at 10 μM
Chain of JAK2 (Invitrogen) kinase (O60674 whole entry): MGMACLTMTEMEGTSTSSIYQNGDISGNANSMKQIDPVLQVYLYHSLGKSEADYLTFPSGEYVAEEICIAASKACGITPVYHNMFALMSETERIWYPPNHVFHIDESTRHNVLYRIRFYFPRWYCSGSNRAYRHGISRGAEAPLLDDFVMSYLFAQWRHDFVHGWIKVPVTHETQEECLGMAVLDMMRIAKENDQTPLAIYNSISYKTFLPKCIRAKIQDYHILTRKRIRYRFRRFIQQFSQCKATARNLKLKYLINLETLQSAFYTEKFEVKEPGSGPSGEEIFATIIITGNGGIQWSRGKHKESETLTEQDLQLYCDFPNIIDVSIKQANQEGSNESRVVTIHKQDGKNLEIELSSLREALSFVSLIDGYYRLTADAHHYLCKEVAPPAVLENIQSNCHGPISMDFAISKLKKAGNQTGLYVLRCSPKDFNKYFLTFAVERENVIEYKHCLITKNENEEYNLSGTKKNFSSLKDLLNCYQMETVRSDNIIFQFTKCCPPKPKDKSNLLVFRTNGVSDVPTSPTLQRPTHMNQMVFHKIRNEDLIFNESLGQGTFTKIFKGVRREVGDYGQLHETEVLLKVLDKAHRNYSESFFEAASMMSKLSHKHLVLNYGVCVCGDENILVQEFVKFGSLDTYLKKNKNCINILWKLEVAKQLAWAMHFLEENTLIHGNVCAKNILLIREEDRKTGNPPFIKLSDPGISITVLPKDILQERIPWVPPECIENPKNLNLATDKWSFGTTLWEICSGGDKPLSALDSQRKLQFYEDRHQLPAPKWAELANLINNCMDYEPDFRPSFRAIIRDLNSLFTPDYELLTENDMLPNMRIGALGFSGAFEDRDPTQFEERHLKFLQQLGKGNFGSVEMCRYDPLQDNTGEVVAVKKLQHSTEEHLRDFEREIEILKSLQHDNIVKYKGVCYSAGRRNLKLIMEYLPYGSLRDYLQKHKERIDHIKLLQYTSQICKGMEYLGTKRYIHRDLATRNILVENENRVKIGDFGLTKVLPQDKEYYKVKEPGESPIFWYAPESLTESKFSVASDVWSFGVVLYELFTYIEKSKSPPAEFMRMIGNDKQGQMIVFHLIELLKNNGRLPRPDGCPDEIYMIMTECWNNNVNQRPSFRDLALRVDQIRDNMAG
Description: Peptide substrate, [KKSRGDYMTMQIG], (20 μM) is prepared in reaction buffer (20 mM Hepes pH 7.5, 10 mM MgCl2, 1 mM EGTA, 0.02% Brij35, 0.02 mg/mL BSA, 0.1 mM […], 2 mM DTT, 1% DMSO. TYK2 (Invitrogen) kinase is added, followed by compounds in DMSO. ^33PATP is added to initiate the reaction with ATP at 10 μM. Kinase reaction is incubated for 120 min at room temp and reactions are spotted onto P81 ion exchange paper (Whatman #3698-915), and then washed extensively in 0.75% phosphoric acid, prior to reading the radioactivity counts. For JAK2 (Invitrogen) kinase assay the peptide substrate poly[Glu:Tyr](4:1), 0.2 mg/ml is used, in the reaction carried out the same as for TYK2.

CN1CCN(c2ccn(-c3cc(-c4c(F)cccc4F)nc4c3C(=O)NC4)n2)CC1 [I-5, 2-(2,6-difluorophenyl)-4-(3-(4-methylpiperazin-1-yl)-1H-pyrazol-1-yl)-6,7-dihydro-5H-pyrrolo[3,4-b]pyridin-5-one]
EC50 [1]: > 2000 nM

N#Cc1cccc(F)c1-c1cc(-n2ccc(N3CCC(N4CCOCC4)CC3)n2)c2c(n1)CNC2=O [I-59, 3-fluoro-2-(4-(3-(4-morpholinopiperidin-1-yl)-1H-pyrazol-1-yl)-5-oxo-6,7-dihydro-5H-pyrrolo[3,4-b]pyridin-2-yl)benzonitrile]
EC50 ([1]; Homo sapiens, PBMC): 100 to 2000 nM
EC50 [2]: 100 to 2000 nM

CO[C@@H]1CN(c2ccn(-c3cc(-c4c(F)cccc4C#N)nc4c3C(=O)NC4)n2)C[C@@H]1O [I-154, 3-fluoro-2-(4-(3-((3S,4R)-3-hydroxy-4-methoxypyrrolidin-1-yl)-1H-pyrazol-1-yl)-5-oxo-6,7-dihydro-5H-pyrrolo[3,4-b]pyridin-2-yl)benzonitrile]
Ki (JAK2 (Invitrogen) kinase): 0.1 to 10 nM
